Common to all, as to assay type: cell-based
One experiment concerns the target T1, GLP-1R (Homo sapiens, UniProt P43220).
T1 construct: expressed in transfected cells; host or cells: HEK293 (HEK293-GLP-1R)
Kind of experiment: In vitro cell activity, cAMP production in HEK293 cells expressing GLP-1R. The settings on record: HEK293-GLP-1R cells, cAMP; read-out: GLP-1R (EC50). As to the method: (§1) After they were completely thawed within 1.5 minutes, the cells were added dropwise into a 15 mL centrifuge tube containing 8 mL of warm culture medium in a clean bench. The tubes were centrifuged at 900 rpm for 5 minutes, the supernatant was discarded, and the cells were resuspended in 1 mL of complete culture medium (by pipetting 15 times). 20 µL of the suspension was immediately taken and mixed with an equal volume of trypan blue. 20 µL was taken to count the number of live cells, and the cells were diluted to 4×10^5 cells/mL with complete culture medium. • 4) The 384-well plate was divided into GLP-1R cell, GCGR cell and GIPR cell areas. The cell suspension was added to the wells of the corresponding area at 5 µL per well using a 12-channel variable-channel adjustable dispenser. […] Then, the diluted cAMP-d2 working solution and anti-cAMP-crytate working solution were mixed evenly in a ratio of 1:1, and 10 µL was added to each well of the sample group. The wells were covered with white lids and placed at room temperature in the dark for 1 hour or at 4 °C overnight. • 6) The fluorescence values at 665 nm and 620 nm were detected in a multifunctional microplate reader. In GraphPad Prism 6, the signal ratio and sample concentration were nonlinearly fitted using a four-parameter equation to obtain the EC50 value.

The target in a further experiment is T2, GCGR (Homo sapiens, UniProt P47871).
T2 construct: expressed in transfected cells; host or cells: HEK293 (HEK293-GCGR)
T2 sequence (P47871 26-477, species assumed): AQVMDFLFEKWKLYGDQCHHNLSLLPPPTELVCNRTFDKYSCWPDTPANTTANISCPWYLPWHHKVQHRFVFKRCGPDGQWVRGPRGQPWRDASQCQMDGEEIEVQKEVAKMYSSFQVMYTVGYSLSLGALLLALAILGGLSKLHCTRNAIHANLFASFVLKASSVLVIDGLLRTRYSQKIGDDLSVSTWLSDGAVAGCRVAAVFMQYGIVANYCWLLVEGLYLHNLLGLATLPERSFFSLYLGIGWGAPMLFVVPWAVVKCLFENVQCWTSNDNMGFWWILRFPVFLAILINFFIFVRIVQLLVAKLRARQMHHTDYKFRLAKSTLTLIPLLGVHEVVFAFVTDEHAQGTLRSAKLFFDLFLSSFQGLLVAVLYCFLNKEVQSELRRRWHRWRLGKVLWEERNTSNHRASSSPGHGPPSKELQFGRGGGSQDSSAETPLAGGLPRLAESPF
Nature of the experiment: In vitro cell activity, cAMP production in HEK293 cells expressing GCGR. As to conditions: HEK293-GCGR cells, cAMP; read-out: GCGR (EC50). As to the method: as §1

Another experiment deals with T3, GIPR (Homo sapiens, UniProt P48546).
T3 construct: expressed in transfected cells; host or cells: HEK293 (HEK293-GIPR)
T3 sequence (P48546 22-466): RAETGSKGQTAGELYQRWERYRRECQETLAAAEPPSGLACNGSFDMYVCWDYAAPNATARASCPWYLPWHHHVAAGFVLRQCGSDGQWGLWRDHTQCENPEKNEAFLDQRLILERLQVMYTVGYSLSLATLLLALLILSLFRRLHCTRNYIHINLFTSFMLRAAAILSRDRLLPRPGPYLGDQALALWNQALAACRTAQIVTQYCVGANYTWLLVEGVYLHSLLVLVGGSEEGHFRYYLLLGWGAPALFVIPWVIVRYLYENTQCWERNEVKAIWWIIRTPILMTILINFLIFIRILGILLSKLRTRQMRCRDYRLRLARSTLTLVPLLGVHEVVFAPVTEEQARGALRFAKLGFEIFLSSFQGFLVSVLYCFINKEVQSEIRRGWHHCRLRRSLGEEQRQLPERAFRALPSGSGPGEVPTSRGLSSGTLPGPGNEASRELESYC
Kind of experiment: In vitro cell activity, cAMP production in HEK293 cells expressing GIPR. The settings on record: HEK293-GIPR cells, cAMP; read-out: GIPR (EC50). As for the experimental part:
as §1, with “The wells were covered with white lids and placed at room temperature in the dark for 1 hour or at 4 °C overnight. • 6) The fluorescence values at 665 nm and 620 nm were detected in a multifunctional microplate reader.” left out
(In general: Cyclic AMP is a second messenger, typically raised through Gs and lowered through Gi signalling.)

Molecules are shown by their SMILES.

T1 sequence (P43220 24-463, species assumed): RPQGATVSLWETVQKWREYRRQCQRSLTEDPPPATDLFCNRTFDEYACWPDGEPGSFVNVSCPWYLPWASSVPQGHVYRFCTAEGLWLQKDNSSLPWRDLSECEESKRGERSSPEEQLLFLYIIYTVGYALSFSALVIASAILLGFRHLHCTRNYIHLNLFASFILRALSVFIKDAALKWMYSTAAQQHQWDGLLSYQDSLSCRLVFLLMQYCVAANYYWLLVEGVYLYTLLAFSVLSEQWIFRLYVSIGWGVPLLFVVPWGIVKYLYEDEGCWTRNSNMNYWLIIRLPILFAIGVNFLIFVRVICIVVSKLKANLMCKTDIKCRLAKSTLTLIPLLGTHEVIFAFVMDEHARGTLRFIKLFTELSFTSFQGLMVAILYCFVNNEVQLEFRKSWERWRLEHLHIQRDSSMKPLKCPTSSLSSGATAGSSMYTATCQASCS

`CC[C@H](C)[C@H](NC(=O)[C@H](Cc1ccccc1)NC(=O)[C@H](C)NC(=O)[C@H](CCCNC(=N)N)NC(=O)[C@H](CCC(N)=O)NC(=O)[C@H](C)NC(=O)[C@H](CCCCNC(=O)COCCOCCNC(=O)CC[C@H](NC(=O)CCCCCCCCCCCCCCCCCCC(=O)O)C(=O)O)NC(=O)[C@H](CCC(=O)O)NC(=O)[C@H](CC(=O)O)NC(=O)[C@H](CC(C)C)NC(=O)[C@H](CC(C)C)NC(=O)[C@@H](NC(=O)[C@H](CO)NC(=O)[C@H](Cc1ccc(O)cc1)NC(=O)[C@H](CC(=O)O)NC(=O)[C@H](CO)NC(=O)[C@@H](NC(=O)[C@](C)(Cc1ccccc1F)NC(=O)[C@@H](NC(=O)CNC(=O)[C@H](Cc1c[nH]cn1)NC(=O)C(C)(C)NC(=O)[C@@H](N)Cc1ccc(O)cc1)[C@@H](C)O)[C@@H](C)O)[C@@H](C)CC)C(=O)N[C@@H](CCC(=O)O)C(=O)N[C@@H](Cc1ccc(O)cc1)C(=O)N[C@@H](CC(C)C)C(=O)N[C@@H](CC(C)C)C(=O)N[C@@H](C)C(=O)NCC(=O)NCC(=O)N1CCC[C@H]1C(=O)N[C@@H](CO)C(=O)N[C@@H](CO)C(=O)NCC(=O)N[C@@H](C)C(=O)N1CCC[C@H]1C(=O)N1CCC[C@H]1C(=O)N1CCC[C@H]1C(=O)N[C@@H](CO)C(=O)O` [HEC-PT83]: the EC50 – broadly, the midpoint of the concentration-response curve – at GLP-1R came to 256 pM; on GCGR it was 311 pM; on GIPR, 158 pM.

On to `CC[C@H](C)[C@H](NC(=O)[C@H](Cc1ccccc1)NC(=O)[C@H](C)NC(=O)[C@H](CCCNC(=N)N)NC(=O)[C@H](CCC(N)=O)NC(=O)[C@H](C)NC(=O)[C@H](CCCCNC(=O)COCCOCCNC(=O)CC[C@H](NC(=O)CCCCCCCCCCCCCCCCCCC(=O)O)C(=O)O)NC(=O)[C@H](CCC(=O)O)NC(=O)[C@H](CC(=O)O)NC(=O)[C@H](CC(C)C)NC(=O)[C@H](CC(C)C)NC(=O)[C@@H](NC(=O)[C@H](CO)NC(=O)[C@H](Cc1ccc(O)cc1)NC(=O)[C@H](CC(=O)O)NC(=O)[C@H](CO)NC(=O)[C@@H](NC(=O)[C@](C)(Cc1ccccc1F)NC(=O)[C@@H](NC(=O)CNC(=O)[C@H](Cc1c[nH]cn1)NC(=O)C(C)(C)NC(=O)[C@@H](N)Cc1ccc(O)cc1)[C@@H](C)O)[C@@H](C)O)[C@@H](C)CC)C(=O)N[C@@H](CCC(=O)O)C(=O)N[C@@H](Cc1ccc(O)cc1)C(=O)N[C@@H](CC(C)C)C(=O)N[C@@H](CC(C)C)C(=O)N[C@@H](CCC(=O)O)C(=O)NCC(=O)NCC(=O)N1CCC[C@H]1C(=O)N[C@@H](CO)C(=O)N[C@@H](CO)C(=O)NCC(=O)N[C@@H](C)C(=O)N1CCC[C@H]1C(=O)N1CCC[C@H]1C(=O)N1CCC[C@H]1C(=O)N[C@@H](CO)C(=O)O` [HEC-PT84], for which the EC50 stood at 291 pM at GLP-1R, 306 pM on GCGR and 232 pM at GIPR.

Regarding `CC[C@H](C)[C@H](NC(=O)[C@H](Cc1ccccc1)NC(=O)[C@H](C)NC(=O)[C@H](CCCNC(=N)N)NC(=O)[C@H](C)NC(=O)[C@H](CCCNC(=N)N)NC(=O)[C@H](CCCCNC(=O)COCCOCCNC(=O)CC[C@H](NC(=O)CCCCCCCCCCCCCCCCCCC(=O)O)C(=O)O)NC(=O)[C@H](CCC(=O)O)NC(=O)[C@H](CC(=O)O)NC(=O)[C@H](CC(C)C)NC(=O)[C@H](CC(C)C)NC(=O)[C@@H](NC(=O)[C@H](CO)NC(=O)[C@H](Cc1ccc(O)cc1)NC(=O)[C@H](CC(=O)O)NC(=O)[C@H](CO)NC(=O)[C@@H](NC(=O)[C@](C)(Cc1ccccc1F)NC(=O)[C@@H](NC(=O)CNC(=O)[C@H](CCC(N)=O)NC(=O)C(C)(C)NC(=O)[C@@H](N)Cc1ccc(O)cc1)[C@@H](C)O)[C@@H](C)O)[C@@H](C)CC)C(=O)N[C@@H](CCC(=O)O)C(=O)N[C@@H](Cc1ccc(O)cc1)C(=O)N[C@@H](CC(C)C)C(=O)N[C@@H](CC(C)C)C(=O)N[C@@H](C)C(=O)NCC(=O)NCC(=O)N1CCC[C@H]1C(=O)N[C@@H](CO)C(=O)N[C@@H](CO)C(=O)NCC(=O)N[C@@H](C)C(=O)N1CCC[C@H]1C(=O)N1CCC[C@H]1C(=O)N1CCC[C@H]1C(=O)N[C@@H](CO)C(=O)O` [HEC-PT88], the EC50 on GLP-1R turned out to be 130 pM; at GCGR, 35 pM; on GIPR it was 485 pM.

Consider `CC[C@H](C)[C@H](NC(=O)[C@H](Cc1ccccc1)NC(=O)[C@H](CCC(=O)O)NC(=O)[C@H](CCCNC(=N)N)NC(=O)[C@H](C)NC(=O)[C@H](CCCNC(=N)N)NC(=O)[C@H](CCCCNC(=O)COCCOCCNC(=O)CC[C@H](NC(=O)CCCCCCCCCCCCCCCCCCC(=O)O)C(=O)O)NC(=O)[C@H](CCC(=O)O)NC(=O)[C@H](CC(=O)O)NC(=O)[C@H](CC(C)C)NC(=O)[C@H](CC(C)C)NC(=O)[C@@H](NC(=O)[C@H](CO)NC(=O)[C@H](Cc1ccc(O)cc1)NC(=O)[C@H](CC(=O)O)NC(=O)[C@H](CO)NC(=O)[C@@H](NC(=O)[C@](C)(Cc1ccccc1F)NC(=O)[C@@H](NC(=O)CNC(=O)[C@H](Cc1c[nH]cn1)NC(=O)C(C)(C)NC(=O)[C@@H](N)Cc1ccc(O)cc1)[C@@H](C)O)[C@@H](C)O)[C@@H](C)CC)C(=O)N[C@@H](CCC(=O)O)C(=O)N[C@@H](Cc1c[nH]c2ccccc12)C(=O)N[C@@H](CC(C)C)C(=O)N[C@@H](CC(C)C)C(=O)N[C@@H](CCC(=O)O)C(=O)NCC(=O)NCC(=O)N1CCC[C@H]1C(=O)N[C@@H](CO)C(=O)N[C@@H](CO)C(=O)NCC(=O)N[C@@H](C)C(=O)N1CCC[C@H]1C(=O)N1CCC[C@H]1C(=O)N1CCC[C@H]1C(=O)N[C@@H](CO)C(=O)O` [HEC-PT89], for which the figures for the EC50 on GLP-1R, at GCGR and on GIPR were 172 pM, 41.9 pM and 214 pM, respectively.

On to `CC[C@H](C)[C@H](NC(=O)[C@H](Cc1ccccc1)NC(=O)[C@H](CCC(=O)O)NC(=O)[C@H](CCC(N)=O)NC(=O)[C@H](CCC(N)=O)NC(=O)[C@H](C)NC(=O)[C@H](CCCCNC(=O)COCCOCCNC(=O)CC[C@H](NC(=O)CCCCCCCCCCCCCCCCCCC(=O)O)C(=O)O)NC(=O)[C@H](CCC(=O)O)NC(=O)[C@H](CC(=O)O)NC(=O)[C@H](CC(C)C)NC(=O)[C@H](CC(C)C)NC(=O)[C@@H](NC(=O)[C@H](CO)NC(=O)[C@H](Cc1ccc(O)cc1)NC(=O)[C@H](CC(=O)O)NC(=O)[C@H](CO)NC(=O)[C@@H](NC(=O)[C@](C)(Cc1ccccc1F)NC(=O)[C@@H](NC(=O)CNC(=O)[C@H](CCC(N)=O)NC(=O)C(C)(C)NC(=O)[C@@H](N)Cc1ccc(O)cc1)[C@@H](C)O)[C@@H](C)O)[C@@H](C)CC)C(=O)N[C@@H](CCC(=O)O)C(=O)N[C@@H](Cc1c[nH]c2ccccc12)C(=O)N[C@@H](CC(C)C)C(=O)N[C@@H](CC(C)C)C(=O)N[C@@H](C)C(=O)NCC(=O)NCC(=O)N1CCC[C@H]1C(=O)N[C@@H](CO)C(=O)N[C@@H](CO)C(=O)NCC(=O)N[C@@H](C)C(=O)N1CCC[C@H]1C(=O)N1CCC[C@H]1C(=O)N1CCC[C@H]1C(=O)N[C@@H](CO)C(=O)O` [HEC-PT90], for which the EC50 came out at 313 pM on GLP-1R, 7070 pM at GCGR and 186 pM at GIPR.

Values taken from patent publication EP4596574A1, “GLP-1/GCG/GIP TRIPLE-RECEPTOR AGONIST AND USE THEREOF” (Sunshine Lake Pharma Co., Ltd., priority 2022, dated 2024).
